Publication PMC11141368, “Antioxidant, antibacterial, enzyme inhibition and fluorescence characteristics of unsymmetrical thiourea derivatives” (Heliyon, 2024)
“And” between values parts separate entries of the source, which are not always exact repeats. Equal entries are not always repeated.

Assays:
[1] = DPPH free radical scavenging assay; assay type: biochemical
Protocol: (§1) In accordance with the procedure described in the literature, the ABTS activity assay was applied to evaluate the free radical scavenging capabilities of the synthesized compounds (1–6). ABTS solution was prepared by mixing 7 mM ABTS and 2.45 mM potassium persulfate and was then placed for 16 h under dark at room temperature. A methanol dilution was performed on the solution to achieve an absorbance of 0.706 ± 0.001 at 734 nm before starting the assay. To quantify the assay, 3 mL of the ABTS solution has been added to different concentrations (ranging from 62.5 to 1000 μg/mL) of every compound (300 μL) that were dissolved in methanol. Then after 1 min of incubation, the absorbance was continuously measured for 5 min. To confirm precision, all experiments were conducted in triplicate. The antioxidant capacities of the compounds were assessed with gallic acid as a reference, and the ability to remove free radicals was calculated as a percentage for each compound employing Equation.1 as presented below. Additionally, the DPPH free radical scavenging method was employed to assess the antioxidant activity of compounds (1–6), in accordance with a widely recognized procedure documented in existing literature. Concentrations ranging from 62.5 to 1000 μg/mL of compounds (1–6), dissolved in methanol, were introduced into a 2 mL solution of DPPH (0.002 % in methanol). The resulting solutions were kept in the dark at room temperature for a duration of 30 min. The amount of light absorbed by the solutions was then determined using a UV/vis spectrophotometer at a wavelength of 517 nm. The investigations were performed three times, using the exact protocol described for the ABTS scavenging assay. Afterwards, the antioxidant capabilities of each molecule were assessed using calculation.(1) Scavengingactivity(%)=A−B/A×100
(§2) Where, A = absorbance of ABTS/DPPH and B = absorbance of solution containing ABTS/DPPH and test samples.

[2] = molecular target: T1, butyryl cholinesterase (BChE) (Equus caballus, UniProt P81908); assay: Anticholinesterase assay (Elman's test), BChE; assay type: biochemical; conditions: for inhibition at 62.5 µg/mL / inhibition at 125 µg/mL / inhibition at 250 µg/mL / inhibition at 500 µg/mL / inhibition at 1000 µg/mL: read-out: BChE Percent inhibition
T1 construct: The AChE was derived from the electric eel, while BChE was obtained from equineserum; from tissue; host or cells: equine serum
Protocol: (§3) This assay employed two enzymes, namely acetylcholinesterase (AChE) and butyryl cholinesterase (BChE). The AChE was derived from the electric eel, while BChE was obtained from equineserum. The synthesized compounds were dissolved in phosphate buffer (0.1 M, pH 8.0). The enzymes AChE (518 U/mg) and BChE (7–16 U/mg) were diluted in a 0.1 M phosphate buffer to achieve concentrations of 0.03 U/mL and 0.01 U/mL, respectively. Preparations of ATchI (0.5 mM), DTNB (0.2273 mM), and BTchI (0.5 mM) were made in distilled water and stored at a low temperature of 8 °C. […] The solution was heated to 30 °C for 15 min, followed by the gradual addition of the substrate. Absorbance of the heated sample at 412 nm was measured using a double beam spectrophotometer. […] The percentage activity (A) and inhibition of the enzyme were determined by applying the rate of absorption as a function of time (V=ΔAbs/Δt) using the following equation (Equation (2)).(2) %Inhibition=V/Vmax×100 Where V = enzyme inhibition activity of products and Vmax = enzyme activity without test of product.

[3] = tested on: S. flexenari; assay: Antibacterial agar well diffusion; assay type: cell-based; conditions: 24 h, 6.25 mg/mL per well, 37 °C
[4] = ABTS free radical scavenging assay; assay type: biochemical
Protocol: as §1, §2

[5] = molecular target: T2, acetylcholinesterase (AChE) (Electrophorus electricus, UniProt O42275); assay: biochemical; conditions: for inhibition at 62.5 µg/mL / inhibition at 125 µg/mL / inhibition at 250 µg/mL / inhibition at 500 µg/mL / inhibition at 1000 µg/mL: read-out: AChE Percent inhibition
T2 construct: The AChE was derived from the electric eel, while BChE was obtained from equineserum; from tissue; host or cells: electric eel (tissue not specified)
Protocol: as §3

[6] = tested on: E. coli; assay: Antibacterial agar well diffusion; assay type: cell-based, Escherichia coli (ATCC25922); conditions: Escherichia coli, 24 h, 6.25 mg/mL per well, 37 °C
Excerpt: (§4) The antibacterial assay was done for all compounds (1–6) as described in previous studies. The mean number of viable organisms per milliliter of stock suspensions containing Escherichia coli (ATCC25922), Pseudomonas aeruginosa (ATCC27853), Salmonella typhi (ATCC0650), and Staphylococcus aureus (NCTC25953) was uncovered using the surface viable counting method. Preparations of suspensions containing approximately 108–109 colony forming units (CFU) per milliliter were made. Aseptic nutritional agar was formulated and transferred onto petri dishes. Cultures of bacteria were uniformly distributed on agar surface using sterile brush sticks. Five wells, each with a diameter of 6 mm, were made in each plate using a sterile borer. Afterwards, a concentration of 6.25 mg/mL of each component was applied to separate wells. Cephradine, a readily accessible antibiotic, was employed as a reference standard at an equivalent concentration. Following sealing, the agar dishes were incubated at a controlled temperature of 37 °C for a period of 24 h. The zone of inhibition in the plates was determined, which represents the inhibition of bacterial growth. Each sample zone of inhibition diameter was evaluated, and the antibacterial effectiveness of each drug was quantified according to the mean diameter of the inhibition zone (in millimetres).

[7] = tested on: S. typhi; assay: Antibacterial agar well diffusion; assay type: cell-based, Salmonella typhi (ATCC0650); conditions: 24 h, 6.25 mg/mL per well, 37 °C; for zone of inhibition at 6250 µg/mL: Salmonella enterica, TYPHI
Excerpt: as §4

[8] = tested on: P. aeruginosa; assay: Antibacterial agar well diffusion; assay type: cell-based, Pseudomonas aeruginosa (ATCC27853); conditions: Pseudomonas aeruginosa, 24 h, 6.25 mg/mL per well, 37 °C
Excerpt: as §4

T1 sequence (P81908 whole entry): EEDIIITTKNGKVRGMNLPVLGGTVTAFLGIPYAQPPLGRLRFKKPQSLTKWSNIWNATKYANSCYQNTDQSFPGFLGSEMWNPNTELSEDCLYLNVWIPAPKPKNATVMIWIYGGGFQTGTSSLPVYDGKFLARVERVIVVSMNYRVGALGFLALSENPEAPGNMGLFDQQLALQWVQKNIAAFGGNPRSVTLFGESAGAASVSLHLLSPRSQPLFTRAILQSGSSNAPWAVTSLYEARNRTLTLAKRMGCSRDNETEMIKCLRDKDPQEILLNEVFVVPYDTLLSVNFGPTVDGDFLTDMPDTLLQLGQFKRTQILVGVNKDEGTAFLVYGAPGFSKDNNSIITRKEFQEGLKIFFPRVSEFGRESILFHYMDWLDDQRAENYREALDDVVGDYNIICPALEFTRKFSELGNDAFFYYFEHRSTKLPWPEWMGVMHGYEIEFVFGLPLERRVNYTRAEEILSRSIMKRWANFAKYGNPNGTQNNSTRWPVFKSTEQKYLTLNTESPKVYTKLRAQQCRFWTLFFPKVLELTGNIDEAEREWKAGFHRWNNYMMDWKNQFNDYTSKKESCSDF
T2 sequence (O42275 24-633): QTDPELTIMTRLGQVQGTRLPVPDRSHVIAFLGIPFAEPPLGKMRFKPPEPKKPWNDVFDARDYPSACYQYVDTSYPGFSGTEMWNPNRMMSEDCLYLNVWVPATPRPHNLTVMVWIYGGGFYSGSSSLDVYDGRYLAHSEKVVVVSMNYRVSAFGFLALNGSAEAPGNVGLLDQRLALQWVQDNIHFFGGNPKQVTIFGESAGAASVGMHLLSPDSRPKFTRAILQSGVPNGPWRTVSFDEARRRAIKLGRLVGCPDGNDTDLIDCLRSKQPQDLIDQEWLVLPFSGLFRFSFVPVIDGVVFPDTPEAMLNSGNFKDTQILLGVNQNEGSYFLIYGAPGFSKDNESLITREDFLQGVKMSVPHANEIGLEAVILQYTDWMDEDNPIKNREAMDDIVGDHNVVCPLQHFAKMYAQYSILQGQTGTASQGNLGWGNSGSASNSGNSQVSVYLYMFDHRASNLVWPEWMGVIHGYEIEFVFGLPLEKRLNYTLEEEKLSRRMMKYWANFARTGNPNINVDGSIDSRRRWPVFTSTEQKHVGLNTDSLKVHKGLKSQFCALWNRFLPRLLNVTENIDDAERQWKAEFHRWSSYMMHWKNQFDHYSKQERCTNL

Compound | DPPH IC50 [1] | DPPH %inhibition ([1]; 62.5 μg/mL) | DPPH %inhibition ([1]; 125 μg/mL) | DPPH %inhibition ([1]; 250 μg/mL) | DPPH %inhibition ([1]; 500 μg/mL) | DPPH %inhibition ([1]; 1000 μg/mL) | IC50 [2] | inhibition at 62.5 µg/mL [2] | inhibition at 125 µg/mL [2] | inhibition at 250 µg/mL [2] | inhibition at 500 µg/mL [2] | inhibition at 1000 µg/mL [2] | zone of inhibition at 6250 µg/mL [3] | ABTS IC50 [4] | ABTS %inhibition ([4]; 62.5 μg/mL) | ABTS %inhibition ([4]; 250 μg/mL) | ABTS %inhibition ([4]; 500 μg/mL) | ABTS %inhibition ([4]; 1000 μg/mL) | IC50 [5] | zone of inhibition at 6250 µg/mL [7] | also measured
S=C(Nc1ccccn1)NC1CCCCC1 [Compound 1, 1-cyclohexyl-3-(pyridin-2-yl) thiourea] | 63.02 µg/mL | 48.57 ± 2.03% | 54.32 ± 1.89% | 63.01 ± 1.65% | 75.63 ± 2.60% | 85.10 ± 1.45% | 96 µM | 65.8 ± 1.5% | 71.6 ± 1.06% | 76.42 ± 0.43% | 84.2 ± 1.83% | 91.76 ± 0.71% | 8.5 mm | 67.08 µg/mL | 47.65 ± 1.74% | 63.59 ± 2.50% | 72.20 ± 1.90% | 84.81 ± 1.17% | 115 µM and 117 µM | 10 mm | ABTS %inhibition ([4]; 125 μg/mL): 54.45 ± 0.96%; inhibition at 62.5 µg/mL [5]: 62.44 ± 0.58%; inhibition at 125 µg/mL [5]: 67.6 ± 1.73%; inhibition at 250 µg/mL [5]: 74.3 ± 2.15%; inhibition at 500 µg/mL [5]: 81.7 ± 1.34%; inhibition at 1000 µg/mL [5]: 88.6 ± 1.12%; zone of inhibition at 6250 µg/mL [6]: 9.5 mm; zone of inhibition at 6250 µg/mL [8]: 9 mm
Cc1cccnc1NC(=S)NC1CCCCC1 [Compound 2, 1-cyclohexyl-3-(3-methylpyridin-2-yl)thiourea] | 72.00 µg/mL | 46.51 ± 2.74% | 54.86 ± 2.86% | 64.15 ± 2.10% | 73.41 ± 2.87% | 81.22 ± 2.89% | 1260 µM | 31.5 ± 0.71% | 37.5 ± 0.77% | 45.8 ± 0.58% | 56.45 ± 0.49% | 64.79 ± 0.62% | 11 mm | 82.02 µg/mL | 45.52 ± 2.80% | 60.39 ± 1.71% | 70.37 ± 2.37% | 79.87 ± 2.65% | 1480 µM | 11.5 mm | ABTS %inhibition ([4]; 125 μg/mL): 51.10 ± 1.39%; inhibition at 62.5 µg/mL [5]: 29.7 ± 0.61%; inhibition at 125 µg/mL [5]: 35.7 ± 0.77%; inhibition at 250 µg/mL [5]: 43.8 ± 0.56%; inhibition at 500 µg/mL [5]: 54.6 ± 0.8%; inhibition at 1000 µg/mL [5]: 62.6 ± 0.77%; zone of inhibition at 6250 µg/mL [6]: 9.5 mm; zone of inhibition at 6250 µg/mL [8]: 13.5 mm
Cc1ccc(NC(=S)NC2CCCCC2)c(C)c1 [Compound 3, 1-cyclohexyl-3-(2,4-dimethylphenyl) thiourea] | 118.05 µg/mL | 46.72 ± 2.13% | 51.88 ± 1.29% | 62.53 ± 1.11% | 71.19 ± 1.27% | 80.38 ± 1.10% | 468 µM | 44.29 ± 0.43% | 50.23 ± 0.44% | 55.8 ± 1.07% | 61.87 ± 0.39% | 67.44 ± 0.09% | 10 mm | 115.07 µg/mL | 46.06 ± 1.86% | 62.14 ± 1.30% | 71.16 ± 2.10% | 80.11 ± 1.01% | 548 µM | 8.5 mm | inhibition at 62.5 µg/mL [5]: 43.7 ± 0.66%; inhibition at 125 µg/mL [5]: 49.7 ± 0.35%; inhibition at 250 µg/mL [5]: 53.1 ± 0.62%; inhibition at 500 µg/mL [5]: 59.01 ± 0.42%; inhibition at 1000 µg/mL [5]: 65.5 ± 2.26%; zone of inhibition at 6250 µg/mL [6]: 11 mm; zone of inhibition at 6250 µg/mL [8]: 13.5 mm
S=C(Nc1ccc(Cl)cc1)NC1CCCCC1 [Compound 4, 1-(4-chlorophenyl)-3-cyclohexylthiourea] | 67.11 µg/mL | 48.18 ± 2.31% | 54.67 ± 2.08% | 63.74 ± 0.81% | 72.29 ± 0.27% | 82.11 ± 1.20% | 814 µM | 33 ± 1.15% | 42.7 ± 0.89% | 49 ± 0.58% | 63.03 ± 0.23% | 71.33 ± 0.49% | 13 mm | 67.01 µg/mL | 48.19 ± 1.26% | 61.14 ± 1.43% | 71.03 ± 1.61% | 81.23 ± 1.01% | 928 µM | 11.5 mm | inhibition at 62.5 µg/mL [5]: 31.9 ± 0.48%; inhibition at 125 µg/mL [5]: 39 ± 0.48%; inhibition at 250 µg/mL [5]: 47.9 ± 0.96%; inhibition at 500 µg/mL [5]: 61.6 ± 1.34%; inhibition at 1000 µg/mL [5]: 69.6 ± 1.12%; zone of inhibition at 6250 µg/mL [6]: 12 mm; zone of inhibition at 6250 µg/mL [8]: 10 mm
COc1ccc2c3c1O[C@H]1C[C@@H](O)C=C[C@@]31CCN(C)C2 [Galantamine, reference compound] |  |  |  |  |  |  |  | 64.9 ± 0.87% | 67.9 ± 0.98% |  | 81.83 ± 0.37% | 89.64 ± 0.62% |  |  |  |  |  |  |  |  | 
O=C(O)c1cc(O)c(O)c(O)c1 [Gallic acid, gallic acid, reference compound] | 27.06 µg/mL | 57.54 ± 0.46% | 63.83 ± 1.07% | 69.47 ± 0.46% | 75.45 ± 0.45% | 81.45 ± 0.65% |  |  |  |  |  |  |  | 39.54 µg/mL | 51.68 ± 0.22% | 66.43 ± 0.29% | 71.88 ± 0.20% | 75.89 ± 0.20% |  |  | ABTS %inhibition ([4]; 125 μg/mL): 59.84 ± 0.32%
CC1=C(C(=O)O)N2C(=O)[C@@H](NC(=O)[C@H](N)C3=CCC=CC3)[C@H]2SC1 [Std.Drug, Cephradine, reference compound] |  |  |  |  |  |  |  |  |  |  |  |  |  |  |  |  |  |  |  | 15 mm | Zone of inhibition [7]: 25 mm and 20 mm and 14 mm and 13 mm
